According to patent publication US5728685A, “Methods of treating inflammation using cell adhesion inhibitors” (Glycomed Incorporated, priority 1995, dated 1998):

Assays:
L-Selectin = settings: cited from earlier work
P-SELECTIN = settings: cited from earlier work
[1] = test system: adhesion of human neutrophils in the rabbit isolated heart; test: Reperfusion Injury Assay: complement-induced neutrophil adhesion in isolated perfused heart; parameters: species or system human neutrophils; New Zealand White rabbit heart
Text: Experiments were done to determine the effectiveness of compound 13b in decreasing adhesion of human neutrophils in the rabbit isolated […]. Addition of the human plasma to the rabbit isolated […] results in activation of the complement components found within the plasma, which in turn promotes an increase in the neutrophil accumulation. This model is used to determine the effect of lactose derivatives on inhibiting complement-induced neutrophil adhesion.
Hearts from New Zealand White rabbits were excised, mounted on a modified Langendorff apparatus and perfused with Krebs-Heinseleit buffer. Cardiac functional parameters were monitored upon a Grass Model 79D polygraph machine. 4% normal human plasma (NHP) was added to the recirculating buffer. Ten minutes after the addition of the plasma, 13b (0.1 mg/ml) was added to the perfusate. After 15 minutes of perfusion with the plasma, 51-chromium labelled human neutrophils (1×10^5 /ml) were added to the perfusate and allowed to recirculate for an additional 15 minutes. At the end of this time the hearts were washed with fresh buffer to remove non-specifically bound neutrophils, dried and counted in a well type gamma-counter. A concentration response curve was generated using concentrations of 0.001, 0.01 and 0.1 mg/ml. Six hearts were used for each of these concentrations.
Table 4 lists the results, expressed as the percent inhibition of neutrophil accumulation.

[2] = test system: neutrophil-dependent injury to the lung endothelium and alveolar epithelium; test: Acute Lung Injury Assay (acid aspiration injury); format: in vivo, New Zealand White rabbits; settings: 10 mg/kg/hr IV; for Alveolar-arterial blood oxygen gradient: as compared to control animals
Text: Experiments were done to determine the effectiveness of compounds 13b or 31 in their ability to reduce neutrophil-dependent injury to the lung endothelium and alveolar epithelium following acid aspiration injury.
Female New Zealand White rabbits (1 each/group, approx. 2 KG each) were anesthetized with halothane and ventilated with positive pressure ventilation supplemented with oxygen. Vascular catheters were placed in the carotid artery, into the internal jugular vein, and a tracheostomy was made for positive pressure ventilation. A low pH solution (HCl, pH 1.5) was installed in Ringer's lactate (osmolality=approximately 100) at a dose of 3 ml/kg into the trachea to stimulate a gastric aspiration induced lung injury. Compound 13b or 31 were injected (10 mg/kg/hr IV) 5 minutes prior to intratracheal instillation of the low pH solutions continued by hourly injections until the end of the experiment. Appropriate controls were used. An intravascular as well as an intra-alveolar radiolabelled protein tracer was injected to quantify lung endothelial and alveolar epithelial protein permeability. Arterial blood gases, systemic blood pressure and airways were monitored. At the end of 6 hours the lungs were removed and alveolar fluid was sampled from both lungs in order to measure the concentration of native protein as well as radiolabelled proteins in the airspaces to calculate lung vascular and lung epithelial permeability. Also, one lung was lavaged in order to count the neutrophils that are present in the airspaces of the lungs. Extravascular lung water measurements was done on the lung which was not lavaged. Histological samples were taken from selected portions of the lung.

[3] = test system: L-SELECTIN (L Selectin-IgG chimera); test: ELISA: inhibition of L-selectin binding to 2,3 sLex glycolipid
Text: (§1) E-SELECTIN transfected COS cells produced by the above method may be used to assay for glucuronyl glycolipid ligands. Similarly, COS cells may be transfected with cDNAs that encode L-SELECTIN and/or P-SELECTIN. The production and characterization of L-SELECTIN IgG chimera constructs have been previously described by Watson S. R. et al., (1990) J. Cell Biol. 110:2221-2229. This chimera contains two complement binding domains, consistent with its natural expression. See Watson S. R. et al., (1991) J. Cell Biol. 115:235-243. P-SELECTIN chimera was constructed in a similar manner as described by Walz, G., et al (1990) Science 250, 1132-1135, and Aruffo, A. et al. (1991) Cell, 67, 35-44, respectively. The chimeras may be expressed in a suitable host cell, for example, 293 cells and purified. Protein A affinity chromatography is the preferred method of purification. E-SELECTIN and P-SELECTIN may be constructed with truncated complement binding domains to standardize the size of the chimeras and to facilitate their secretion. A variation of the above assay is to genetically engineer cells to express high levels of L-SELECTIN, E-SELECTIN, or P-SELECTIN on their surface, and to use the cells in lieu of purified selectin. Radiolabeled COS cells have been used in this type of assay, and can be transfected with cDNA that encodes for L-SELECTIN, E-SELECTIN or P-SELECTIN. […] The number of adherent cells reflects the capacity of the ligand to bind to the selectin.
Compounds 13a, 13b, 26 and 31 were tested for their capacity to bind to E, L and P selectin. The ELISA assay used consists of evaporating 2,3 sLex glycolipid, at 25 picomoles per well, onto microtiter wells, and then washing the excess off with water. The wells are blocked with 5% BSA at room temperature for an hour and then washed with PBS containing 1 mM Ca. While the plate is being blocked, biotin labelled goat F(ab')2 IgG (Fc specific) and streptavidinalkaline phosphatase diluted 1:1500 in 1% BSA-PBS (1 mM Ca) are combined with either the E, L or P Selectin-IgG chimera (L91-10) at 200 ng/mL and incubated at 37° C. for 15 minutes to allow a complex to form. This provides a soluble "multivalent" receptor. […] The solutions were then placed in the microtiter wells that had been washed after being blocked, and the plates incubated at 37° C. for 45 minutes to allow the soluble receptor to bind to the known natural ligand, 2,3 sLex glycolipid. The positive control was the signal produced by soluble "multivalent" receptor reacted with only the ligand evaporated to the microtiter well. This was considered "100% binding." The signal produced by receptor previously reacted with inhibitor is divided by the signal produced by the positive control, multiplied by 100, to calculate % receptor bound in the presence of the inhibitor. The reciprocal of this is % inhibition.

[4] = test system: E-SELECTIN (E Selectin-IgG chimera); test: ELISA: inhibition of E-selectin binding to 2,3 sLex glycolipid
Text: as §1
(§2) Compounds 13a, 13b, 26 and 31 were tested for their capacity to bind to E, L and P selectin. The ELISA assay used consists of evaporating 2,3 sLex glycolipid, at 25 picomoles per well, onto microtiter wells, and then washing the excess off with water. The wells are blocked with 5% BSA at room temperature for an hour and then washed with PBS containing 1 mM Ca. While the plate is being blocked, biotin labelled goat F(ab')2 IgG (Fc specific) and streptavidinalkaline phosphatase diluted 1:1500 in 1% BSA-PBS (1 mM Ca) are combined with either the E, L or P Selectin-IgG chimera (L91-10) at 200 ng/mL and incubated at 37° C. for 15 minutes to allow a complex to form. This provides a soluble "multivalent" receptor. Compounds 13a and 13b were added at final concentrations ranging from 1.5 to 5.0 mM to the soluble receptor and allowed to react at 37° C. for 45 minutes. The solutions were then placed in the microtiter wells that had been washed after being blocked, and the plates incubated at 37° C. for 45 minutes to allow the soluble receptor to bind to the known natural ligand, 2,3 sLex glycolipid. The positive control was the signal produced by soluble "multivalent" receptor reacted with only the ligand evaporated to the microtiter well. This was considered "100% binding." The signal produced by receptor previously reacted with inhibitor is divided by the signal produced by the positive control, multiplied by 100, to calculate % receptor bound in the presence of the inhibitor. The reciprocal of this is % inhibition.

mammalian hepatocytes = settings: Lee et al. 1984, read-out: IC50 for inhibition of labeled ASOR binding; cited from earlier work
[5] = test system: P-SELECTIN (P Selectin-IgG chimera); test: ELISA: inhibition of P-selectin binding to 2,3 sLex glycolipid
Text: as §1, §2

Compound: CC(=O)NC1C(O)CC(OC2C(O)C(CO)OC(OC3C(CO)OC(O)C(NC(C)=O)C3OC3OC(C)C(O)C(O)C3O)C2O)(C(=O)O)OC1C(O)C(O)CO (stereo not drawn) [sialyl Lewis X, NeuNAc α2-3-Gal-β1-4(Fucα1-3)-GlcNAc]
- binding to L-Selectin (L-Selectin): binds

Compound: sulfatides
- binding to P-Selectin (P-SELECTIN): bind

Compound: C[C@@H]1O[C@@H](O[C@H]2[C@H](O[C@@H]3O[C@H](CO)[C@H](O)[C@H](OS(=O)(=O)O)[C@H]3O)[C@@H](CO)OC(O)[C@@H]2O)[C@@H](O)[C@H](O)[C@@H]1O (stereo partly drawn) [Compound 13b, O-α-L-fucopyranoayl-(1→3)-O-[sodium β-D-galactopyranosyl 3-sulfate-(1→4)]-D-glucopyranose]
- degree of inhibition of neutrophil adhesion (in words) ([1]; 0.1 mg/ml): most significant degree of inhibition
- inhibition of neutrophil adhesion (in words) ([1]; 0.001, 0.01 and 0.1 mg/ml): inhibited neutrophil adhesion in a concentration-dependent manner
- inhibition at 100 µg/mL ([1]; Neutrophil, Table 4, 13b (0.1 mg/ml) added to the perfusate, read-out: % Neutrophil Inhibition (percent inhibition of neutrophil accumulation)): 35%
- Alveolar-arterial blood oxygen gradient [2]: decrease
- inhibition of binding of L selectin to 2,3 sLex glycolipid (in words) [3]: inhibit binding of L selectin
- % INHIBITION of L-selectin binding to sLeX ([3]; 1.25 mM): 90%
- % INHIBITION of L-selectin binding to sLeX ([3]; 2.0 mM): 100%
- % INHIBITION of L-selectin binding to sLeX ([3]; 2.5 mM): 100%
- inhibition of binding of E selectin to 2,3 sLex glycolipid (in words) [4]: inhibit binding of E selectin to 2,3 sLex glycolipid
- % INHIBITION of E-selectin binding to sLeX ([4]; 1.25 mM): 48.5%
- % INHIBITION of E-selectin binding to sLeX ([4]; 2.5 mM): 45.4%
- % INHIBITION of E-selectin binding to sLeX ([4]; 5.0 mM): 82.5%

Compound: CCCCCCCCO[C@@H]1O[C@H](CO)[C@@H](O[C@@H]2O[C@H](CO)[C@H](O)[C@H](OS(=O)(=O)O)[C@H]2O)[C@H](O)[C@H]1O [Compound 31, Octyl 4-O-(sodium β-D-galactopyranosyl 3-sulfate)-β-glucopyranoside]
- Alveolar-arterial blood oxygen gradient [2]: decrease
- neutrophil-dependent injury to the lung endothelium and alveolar epithelium ([2]; following acid aspiration injury): effectively reduced neutrophil-dependent injury
- inhibition of binding of L selectin to 2,3 sLex glycolipid (in words) [3]: inactive
- % INHIBITION of L-selectin binding to sLeX ([3]; 0.5 mM): 0%
- % INHIBITION of L-selectin binding to sLeX ([3]; 1.0 mM): 0%
- % INHIBITION of L-selectin binding to sLeX ([3]; 2.0 mM): 0%
- % INHIBITION of L-selectin binding to sLeX ([3]; 4.0 mM): 0%
- inhibition of binding of E selectin to 2,3 sLex glycolipid (in words) [4]: inactive
- % INHIBITION of E-selectin binding to sLeX ([4]; 0.5 mM): 0%
- % INHIBITION of E-selectin binding to sLeX ([4]; 1.0 mM): 0%
- % INHIBITION of E-selectin binding to sLeX ([4]; 2.0 mM): 0%
- % INHIBITION of E-selectin binding to sLeX ([4]; 4.0 mM): 0%

Compound: OC[C@H]1O[C@@H](O[C@H]2[C@H](O)[C@@H](O)C(O)O[C@@H]2CO)[C@H](O)[C@@H](O)[C@H]1O (stereo partly shown) [single valent lactose, lactose]
- IC50 (mammalian hepatocytes): 500 µM

Compound: CCCCCCCCO[C@@H]1O[C@H](CO)[C@@H](O[C@@H]2O[C@H](CO)[C@H](O)[C@H](OS(=O)(=O)O)[C@H]2O)[C@H](O[C@@H]2O[C@@H](C)[C@@H](O)[C@@H](O)[C@@H]2O)[C@H]1O [Compound 26]
- % INHIBITION of L-selectin binding to sLeX ([3]; 0.5 mM): 0%
- % INHIBITION of L-selectin binding to sLeX ([3]; 1.0 mM): 30%
- % INHIBITION of L-selectin binding to sLeX ([3]; 2.0 mM): 30%
- % INHIBITION of L-selectin binding to sLeX ([3]; 4.0 mM): 30%
- inhibition of binding of E selectin to 2,3 sLex glycolipid (in words) [4]: inhibit binding of E selectin to 2,3 sLex glycolipid
- % INHIBITION of E-selectin binding to sLeX ([4]; 0.5 mM): 0%
- % INHIBITION of E-selectin binding to sLeX ([4]; 1.0 mM): 30%
- % INHIBITION of E-selectin binding to sLeX ([4]; 2.0 mM): 50%
- % INHIBITION of E-selectin binding to sLeX ([4]; 4.0 mM): 70%
- % INHIBITION of P-selectin binding to sLeX ([5]; 0.5 mM): 0%
- % INHIBITION of P-selectin binding to sLeX ([5]; 1.0 mM): 20%
- % INHIBITION of P-selectin binding to sLeX ([5]; 2.0 mM): 40%
- % INHIBITION of P-selectin binding to sLeX ([5]; 4.0 mM): 45%
- inhibition of P selectin binding to 2,3 sLex glycolipid (in words) ([5]; as compared to L-selectin): better inhibitor of P selectin (as compared to L-selectin)

Compound: C[C@@H]1O[C@@H](O[C@@H]2[C@@H](O)[C@H](OCC[Si](C)(C)C)O[C@H](CO)[C@H]2O[C@@H]2O[C@H](CO)[C@H](O)[C@H](OS(=O)(=O)O)[C@H]2O)[C@@H](O)[C@H](O)[C@@H]1O [Compound 13a, 2-(Trimethylsilyl) ethyl O-α-L-fucopyranosyl-(1→3)-O-[sodium-β-D-galactopyranosyl3-sulfate-(1→4)]-β-D-glucopyranoside]
- inhibition of binding of L selectin to 2,3 sLex glycolipid (in words) [3]: inhibit binding of L selectin
- % INHIBITION of L-selectin binding to sLeX ([3]; 1.25 mM): 13%
- % INHIBITION of L-selectin binding to sLeX ([3]; 2.5 mM): 27%
- % INHIBITION of L-selectin binding to sLeX ([3]; 5.0 mM): 47%
- inhibition of binding of E selectin to 2,3 sLex glycolipid (in words) [4]: inhibit binding of E selectin to 2,3 sLex glycolipid
- % INHIBITION of E-selectin binding to sLeX ([4]; 1.25 mM): 30%
- % INHIBITION of E-selectin binding to sLeX ([4]; 2.5 mM): 34%
- % INHIBITION of E-selectin binding to sLeX ([4]; 5.0 mM): 48%
